Source: paper PMC3873925, “Peptide-Mediated Liposomal Doxorubicin Enhances Drug Delivery Efficiency and Therapeutic Efficacy in Animal Models” (PLoS ONE, 2013)

Tests used:
H460 cells [1] = test: Peptide competition assay (cellular ELISA); type: cell-based, human; conditions: B-SP5-2 10 µg/ml, unlabeled peptide 22 to 600 µg/ml
Experimental: (§1) H460 cells were seeded in 96-well ELISA plates at 1×10^4 per well. After 24-hour incubation, cells were fixed with 3.7% paraformaldehyde for 10 min at 4°C and then blocked with 1% BSA in PBS for 1 hour at room temperature. Serial diluted biotinylated peptides were incubated with cells for 1 hour at room temperature. After twice washing with PBS, cells were incubated with HRP-conjugated streptavidin (1∶5000 dilution) for 1 hour and then washed with PBS supplemented with 0.1% tween-20 for four times. Binding activity was assessed by cellular ELISA with optical density at 490 nm. For competition assay, cells were firstly incubated with unlabeled peptides at room temperature for 1 hour before incubated with 10 µg/ml biotinylated SP5-2 peptides.

H460 cells [2] = test: Peptide-binding assay (cellular ELISA); type: cell-based, human
Experimental: as §1

H460 cells [3] = test: Orthotopic lung adenocarcinoma model; type: in vivo, SCID mice; conditions: 1 mg/kg i.v. twice a week, eight injections, started five days after orthotopic injection
Experimental: SCID mice (4-week-old) were anesthetized with isoflourane mixed with oxygen and placed in the right lateral decubitus position. The skin overlying the left chest wall in the mid-axillary line was treated with alcohol, and the underlying chest wall and intercostal spaces were visualized. H460 cells (5×10^5; single-cell suspensions of over 90% viability as determined by trypan blue exclusion) in 50 µL serum-free media plus Matrigel Matrix (BD Biosciences) (1∶1) were injected into the left lateral thorax, at the lateral dorsal axillary line. After tumor injection, the mice were turned to the left lateral decubitus position and observed for 45 to 60 minutes until fully recovered. Mice were then treated with different formulations of anti-cancer drugs. The dosage was 1 mg/kg twice a week for four weeks. Mouse body weight and survival rate were measured twice a week. The endpoint was determined by the mouse weight loss (>20% of body weight) or mouse activity assessment (hunching, stationary, ruffling and poor grooming). Mice were observed every day and given soft diet. Animal care was carried out in accordance with the guidelines of Academia Sinica, Taiwan.

[4] = Pharmacokinetic and biodistribution studies in H460 xenograft-bearing mice; type: in vivo, NOD/SCID mice; conditions: 2 mg/kg i.v.
Experimental: Human cancer xenografts were established in NOD/SCID mice (NLAC). H460 cells (5×10^6) were injected subcutaneously (s.c.) into the dorsolateral flanks of 4-week-old mice. […] At selected time points, three mice in each group were anaesthetized and sacrificed with 50% CO2 containing 50% O2. Blood samples were collected through submaxillary punctures, and plasma samples were prepared. After perfusion, xenograft tumors and mouse organs were removed and homogenized. Tumor cell nuclei were isolated and nuclear doxorubicin was extracted as described previously, [32]. The total doxorubicin concentration was measured as described by Mayer et al.. Total doxorubicin was quantified using spectrofluorometry at λex 485/20 nm and λem 645/40 nm (Synergy HT Multi-Detection Microplate Reader, BioTek Instruments, Winooski, VT).
Tissue concentrations of doxorubicin were expressed as microequivalents per milliliter of plasma or per gram of tissue. A standard doxorubicin curve was prepared in control homogenates by following the above extraction procedure. Drug levels were estimated on the basis of doxorubicin fluorescent equivalents.

LL/2 cells = test: Lung metastasis animal model; type: in vivo; conditions: 2 mg/kg i.v. twice a week, eight injections (16 mg/kg total)
Experimental: LL/2 cells were washed twice by centrifugation in media without serum at room temperature, and re-suspended in media at 4°C prior to injection. Cell viability was determined by trypan blue exclusion, and only cell suspensions with greater than 95% viability and without cell clumping were used. Cells (1×10^5 cells/mouse) were inoculated via the lateral tail vein of 6-week-old female C57BL/6 mice. Mice were then treated with different formulations of anti-cancer drugs. The dosage was 1 or 2 mg/kg twice a week for four weeks. Mouse body weight and survival rate were measured twice a week. The endpoint was determined by the mouse weight loss (>20% of body weight) or mouse activity assessment (hunching, stationary, ruffling and poor grooming). Mice were observed every day and given soft diet. Animal care was carried out in accordance with the guidelines of Academia Sinica, Taiwan.

LL/2-derived tumors = test: Syngenic animal model; type: in vivo, C57BL/6 mice; conditions: five injections
Experimental: C57BL/6 mice (6-week-old, NLAC) were injected s.c. in the dorsolateral flank with 2×10^6 LL/2 cells in 100 µL serum-free media. […] The dosage of SP-5-2-LD was 1 or 2 mg/kg, injected twice a week for four weeks. Mouse body weight and tumor size were measured twice a week. Tumor volumes were calculated using the equation: length × (width)^2 ×0.52 and presented as standard error of the mean. This study used humane endpoint by determining the tumor size (>10% of body weight) or mouse weight loss (>20% of body weight). Mice were observed twice a week and given soft diet. Animal care was carried out in accordance with the guidelines of Academia Sinica, Taiwan.

TDSILRSYDWTY [SP5-2]
inhibition of Biotin-labeled SP5-2 binding to H460 cells by unlabeled peptide (H460 cells [1]): competitively inhibited
minimum binding activity started at (H460 cells [2]; H460 cells, biotinylated peptide): 1 µg/mL

TDSILRSYDGGG [MP5-2, mutant peptide, WTY motif changed to GGG]
binding activity (H460 cells [2]; H460 and LL/2 cells, WTY motif changed to GGG): remarkable loss of binding activity

COc1cccc2c1C(=O)c1c(O)c3c(c(O)c1C2=O)C[C@@](O)(C(=O)CO)C[C@@H]3O[C@H]1C[C@H](N)[C@H](O)[C@H](C)O1 [FD, doxorubicin]
mean life spans (H460 cells [3]): 25 days
AUC0-72 h Blood [4]: 5.9 µg·h/g
AUC0-72 h Heart [4]: 26.3 µg·h/g
AUC0-72 h Kidney [4]: 87.2 µg·h/g
AUC0-72 h Liver [4]: 293.6 µg·h/g
AUC0-72 h Lung [4]: 421.2 µg·h/g
AUC0-72 h Nuclei ([4]; doxorubicin bound to tumor cell nuclei): 5.5 µg·h/g
AUC0-72 h Tumor ([4]; doxorubicin in tumor tissue): 8.5 µg·h/g
median overall survival (LL/2 cells): 21 days
tumor size, fold larger than in equivalent SP5-2-LD-treated mice (LL/2-derived tumors; 1 mg/kg i.v. twice a week): 1.55 fold
tumor size, fold larger than in equivalent SP5-2-LD-treated mice (LL/2-derived tumors; 2 mg/kg i.v. twice a week): 2.38 fold
